In publication PMC8053989 (Proceedings of the National Academy of Sciences of the …, 2021):
Where two headings read alike, the source gives them in different places.

Legend:
SARS-CoV-2 replicon [1] = assay: microbe, parasite or virus in culture; format: cell-based; conditions: Calu-1 cells, compound alone
SARS-CoV-2 replicon [2] = assay: microbe, parasite or virus in culture; format: cell-based; conditions: Huh-7.5 cells
SARS-CoV-2 replicon [3] = assay: microbe, parasite or virus in culture; format: cell-based
SARS-CoV-2 replicon [4] = assay: microbe, parasite or virus in culture; format: cell-based; conditions: A549 cells, compound alone
SARS-CoV-2 replicon [5] = assay: microbe, parasite or virus in culture; format: cell-based; conditions: for effect of p-gp inhibitors on potency: in the presence of CP-100356 or elacridar
SARS-CoV-2 replicon [6] = format: cell-based; conditions: concentrations up to 2 µM
293T cells = assay: Cytotoxicity assay (CellTiter-Glo) in replicon-transfected cells; conditions: range of concentrations tested
[7] = tested on: wild-type (wt) SARS-CoV-2; parameters: method as in doi:10.1101/2020.08.28.272880; conditions: ACE2 stably transfected A549 cells; read-out: EC50 against wild-type SARS-CoV-2 infection; cited from earlier work
[8] = Severe acute respiratory syndrome coronavirus 2
[9] = Severe acute respiratory syndrome coronavirus 2, Huh7.5
[10] = Severe acute respiratory syndrome coronavirus 2, HEK-293T, 30 h, read-out: EC50
[11] = Severe acute respiratory syndrome coronavirus 2, Vero cells, compound alone

Structure (SMILES)	EC50 (SARS-CoV-2 replicon [1]; [8])	EC50 (SARS-CoV-2 replicon [3]; [10])	EC50 (SARS-CoV-2 replicon [4]; [8])	EC50 (SARS-CoV-2 replicon [5]; [11])	effect of p-gp inhibitors on potency (SARS-CoV-2 replicon [5]; Vero cells)	further results
Cc1cccc(/C=N/Nc2cc(N3CCOCC3)nc(OCCc3ccccn3)n2)c1 [Apilimod]	> 42000 nM					EC50 (SARS-CoV-2 replicon [2]; [9]): > 42000 nM
CN(C)C(=O)COC(=O)Cc1ccc(OC(=O)c2ccc(NC(=N)N)cc2)cc1 [Camostat]	> 42000 nM	> 42000 nM	> 42000 nM	> 42000 nM		
COc1cc2c(cc1OC)CN(CCc1ccc(NC(=O)c3cccc4c(=O)c5cccc(OC)c5[nH]c34)cc1)CC2 [Elacridar]	> 8400 nM		> 4670 nM	> 4670 nM		antiviral activity when tested alone (SARS-CoV-2 replicon [6]): No antiviral activities were observed
CC(C)C[C@H](NC(=O)OCc1ccccc1)C(=O)N[C@H](C=O)C[C@@H]1CCNC1=O [GC373]					slight increase of the activities	EC50 (SARS-CoV-2 replicon [3]; read-out: EC50): 20.3 ± 5.3 nM; EC50 (SARS-CoV-2 replicon [4]): 539 ± 69 nM; EC50 (SARS-CoV-2 replicon [1]): 30.1 ± 5.8 nM; EC50 (SARS-CoV-2 replicon [5]; Vero cells, compound alone): 309 ± 43 nM
CC(C)C[C@H](NC(=O)OCc1ccccc1)C(=O)N[C@@H](CC1CCNC1=O)C(O)S(=O)(=O)O (stereo partly drawn) [GC376]						EC50 (SARS-CoV-2 replicon [3]; read-out: EC50): 20.8 ± 5.4 nM; EC50 (SARS-CoV-2 replicon [3]; read-out: potency (EC50) in inhibiting SARS-CoV-2 replicon replication, percent GFP signal): 22 nM; EC50 (SARS-CoV-2 replicon [3]; read-out: potency (EC50) in inhibiting SARS-CoV-2 replicon replication, percent luciferase activity): 29.2 nM; EC50 (SARS-CoV-2 replicon [4]): 570 ± 182 nM; EC50 (SARS-CoV-2 replicon [1]): 19.8 ± 2 nM; EC50 (SARS-CoV-2 replicon [5]; Vero cells, compound alone): 237 ± 74 nM; EC50 (SARS-CoV-2 replicon [2]): 19.4 ± 4.9 nM
CC(C)C[C@H](NC(=O)OCc1ccccc1)C(=O)N[C@@H](C[C@@H]1CCNC1=O)C(O)S(=O)(=O)[O-].[Na+] (stereo partly drawn) [GC376]					slight increase of the activities	cytotoxicity (293T cells): No cytotoxicity was detected
CCC(CC)COC(=O)[C@H](C)N[P@](=O)(OC[C@H]1O[C@@](C#N)(c2ccc3c(N)ncnn23)[C@H](O)[C@@H]1O)Oc1ccccc1 [GS-5734]	31.5 ± 23 nM	15.6 ± 5.1 nM	184 nM	2240 nM		EC50 [7]: 442 nM; EC50 (SARS-CoV-2 replicon [2]; [9]): 18.9 nM
N#C[C@@]1(c2ccc3c(N)ncnn23)O[C@H](CO)[C@@H](O)[C@H]1O [GS-441524]	1330 nM	603 ± 131 nM	1470 nM	302 ± 20 nM		EC50 (SARS-CoV-2 replicon [3]; Severe acute respiratory syndrome coronavirus 2, HEK-293T, 30 h, read-out: potency (EC50) in inhibiting SARS-CoV-2 replicon replication, percent GFP signal): 645 nM; EC50 (SARS-CoV-2 replicon [3]; Severe acute respiratory syndrome coronavirus 2, HEK-293T, 30 h, read-out: potency (EC50) in inhibiting SARS-CoV-2 replicon replication, percent luciferase activity): 503 nM; cytotoxicity (293T cells): No cytotoxicity was detected; EC50 (SARS-CoV-2 replicon [2]; [9]): 1030 nM
CC(C)(C)NC(=O)N[C@H](C(=O)N1C[C@H]2[C@@H]([C@H]1C(=O)NC(CC1CCC1)C(=O)C(N)=O)C2(C)C)C(C)(C)C (stereo partly drawn) [MK-3034]	4790 nM	3550 nM	19900 nM	16600 nM	slight increase of the activities	
N=C(N)c1ccc2cc(OC(=O)c3ccc(N=C(N)N)cc3)ccc2c1 [Nafamostat]	> 42000 nM	> 42000 nM	> 42000 nM			EC50 (SARS-CoV-2 replicon [5]; Severe acute respiratory syndrome coronavirus 2, Vero C1008, Vero E6 cells (so in the source)): > 42000 nM
COc1cccc2[nH]c(C(=O)N[C@@H](CC(C)C)C(=O)N[C@@H](C[C@@H]3CCNC3=O)C(=O)CO)cc12 [PF-00835231]					dramatically increased the potency	EC50 (SARS-CoV-2 replicon [3]; read-out: EC50): 75.2 ± 19.1 nM; EC50 (SARS-CoV-2 replicon [4]): 76.3 ± 16.2 nM; EC50 (SARS-CoV-2 replicon [1]): 24.7 ± 3.8 nM; EC50 (SARS-CoV-2 replicon [5]; Vero cells, compound alone): 2190 nM; EC50 (SARS-CoV-2 replicon [2]): 175 ± 56 nM
CC(C)C[C@H](NC(=O)c1cc2ccccc2o1)C(=O)N[C@H]1CC[C@@H](C)N(S(=O)(=O)c2ccccn2)CC1=O [Relacatib]	> 42000 nM	> 42000 nM	> 42000 nM	> 42000 nM		
